Measured values from patent EP3613735A1, “NOVEL SIRT 1 ACTIVATOR AND MEDICINAL USE THEREOF” (Pusan National University Industry - University Cooperation …, priority 2017, dated 2018).

Columns and labels:
skin fibroblasts = test: β-galactosidase staining of UVB-induced cell aging; format: cell-based; settings: UVB of 12 mJ/cm^2; pretreated at 1 µM for 24 hours
Procedure: β-galactosidase is used to induce cellular aging of fibroblasts, which are the main cells of the epidermal layer of skin, by using UVB, the most important environmental factor in skin aging, as the most common marker for cell aging and β-galactosidase staining was performed to analyze the cell aging protection of Compound 32u. […]

db/db mice [1] = test: Neutral fat in the liver (fatty liver) in obese animal model; format: in vivo, mouse; settings: oral 5 mg/kg daily for 4 weeks
Procedure: Since obesity and insulin resistance are representative diseases directly related to the development of non-alcoholic fatty liver, the improvement effect of Compound 32u on fatty liver was analyzed. Compound 32u was orally administered to db/db mice (9 weeks old) at a concentration of 5 mg/kg daily for 4 weeks. First, the accumulation of fat in the liver, the most representative phenotype, was measured. Briefly, about 50 mg of liver was quantified in cold phosphate buffered saline (PBS) or 0.9% sodium chloride (NaCl) and crushed, followed by treating with mixed solvent of chloroform and methanol (MeOH) in a volume ratio of 2:1 and reacted for 2 hours. […] Thereafter, the amount of neutral fat was measured by absorbance using a neutral fat measurement kit (Stanbio laboratory, TX USA). Since obesity and insulin resistance are representative diseases directly related to the development of non-alcoholic fatty liver, the improvement effect of Compound 70c on fatty liver was analyzed. […] First, the accumulation of fat in the liver, the most representative phenotype, was measured. Briefly, about 50 mg of liver was quantified in cold phosphate buffered saline (PBS) or 0.9% sodium chloride (NaCl) and crushed, followed by treating with mixed solvent of chloroform and methanol (MeOH) in a volume ratio of 2:1 and reacted for 2 hours. […]

db/db mice [2] = test: Serum insulin by ELISA in obese animal model; format: in vivo; settings: oral 5 mg/kg daily, compared with db/db mouse group
Procedure: The metabolic disease control ability of Compound 32u was analyzed using db/db mice lacking an appetite-regulating hormone leptin receptor as an obese animal model. Compound 32u was orally administered to db/db mice (9 weeks old) at a concentration of 5 mg/kg daily for 4 weeks. Next, the blood insulin concentration was measured using an enzyme-linked immunosorbent assay (ELISA). Mouse insulin ELISA (TMB) kit ([…], Japan) was used, and serum separated from animal blood was added to a 96 well plate coated with insulin primary antibody and after reacting, the secondary antibody and the substrate were added, reacted and the changed color was measured by an absorbance meter. The metabolic disease control ability of Compound 70c was analyzed using db/db mice lacking an appetite-regulating hormone leptin receptor as an obese animal model. Compound 70c was orally administered to db/db mice (9 weeks old) at a concentration of 5 mg/kg daily for 4 weeks. Next, the blood insulin concentration was measured using an enzyme-linked immunosorbent assay (ELISA). Mouse insulin ELISA (TMB) kit ([…], Japan) was used, and serum separated from animal blood was added to a 96 well plate coated with insulin primary antibody and after reacting, the secondary antibody and the substrate were added, reacted and the changed color was measured by an absorbance meter.

[3] = system: yeast (Saccharomyces cerevisiae); test: Yeast lifespan extension; settings: yeast group treated, compared with the control group

Row | SMILES | β-galactosidase staining (skin fibroblasts) | neutral fat in the liver (db/db mice [1]) | serum insulin concentration (db/db mice [2]) | lifespan [3]
1 | O=C(Nc1ccccc1-c1nc2cc(CN3CCN(C4CCCCC4)CC3)ccc2o1)c1ccc2ccccc2c1 [Compound 70c, N-(2-(5-((4-Cyclohexylpiperazin-1-yl)methyl)benzo[d]oxazol-2-yl)phenyl)-2-naphthamide] | reduced | reduced neutral fat | reduced | 
2 | Cl.O=C(Nc1ccccc1-c1cc2ccc(CN3CCNCC3)cc2o1)c1ccc2ccccc2c1 [Compound 32u, N-(2-(6-(Piperazin-1-ylmethyl)benzofuran-2-yl)phenyl)-2-naphthamide hydrochloride] | reduced | reduced neutral fat | reduced | significantly extended
